Experimental data as given in patent US20070142266A1, “Combination comprising a P-gp inhibitor and an anti-epileptic drug” (priority 2001, published 2007).

Experiments:
[1] = system: P-glycoprotein (P-gp); experiment: In vivo microdialysis in adult female Wistar rats: effect of local P-gp inhibitor perfusion on ECF levels of phenytoin in cerebral cortex; set-up: species or system rat
Protocol: (§1) In vivo microdialysis in Adult Female Wistar Rats
(§2) The combination of phenytoin (Aldrich, Steinheim, Germany) and a P-gp inhibitor, e.g. PSC833) is given via the microdialysis probe in the right frontal cortex, while a probe in the left cortex served as a vehicle control site. Perfusion with the P-gp inhibitor started 15 to 60 minutes prior to i.p. administration of 50 mg/kg phenytoin. • Animals: Adult female Wistar rats (Harlan-Winkelmann, Germany) kept under controlled environmental conditions are used in the study. • Implantation of guide cannulae: Guide cannulae (CMA/12 polyurethane, Camegie Medicine, Sweden) are implanted into the left and right frontal (motor) cortex under anesthesia. The tips of the guide are positioned at rostral +3.2, lateral +3.2 or 3.2 and ventral 2.0 mm to bregma, coordinates according to Paxinos and Watson, The rat brain in stereotaxic coordinates, Sydney, Academic Press, 1986. • Microdialysis procedure: Microdialysis experiments are performed following a recovery period of at least 3 days after surgery. The microdialysis probe is lowered through the guide cannula to a depth of 5.0 mm according to bregma. 14 to 16 h after insertion, perfusion of the probe is started using Ringer solution (in mM 147 Na^+, 2.3 Ca^2+, 4.0 K^+and 155.6 Cr, pH 6.0). […]

[2] = In vivo microdialysis in adult female Wistar rats: extracellular (ECF) phenytoin levels in cerebral cortex in the absence of a P-gp inhibitor; settings: rat, cerebral cortex extracellular fluid (microdialysate), ip, 50 mg/kg phenytoin i.p., after maximum levels reached, read-out: average half-life of decrease of ECF concentrations of phenytoin (converted)
Protocol: as §1, §2

| Structure (SMILES) | increase of ECF levels of phenytoin above control (ECF plasma ratio of treated site vs vehicle treated controls) ([1]; 2 mM PSC833 via microdialysis probe, phenytoin 50 mg/kg i.p., ECF plasma ratio comparison) | maximum increase of ECF levels of phenytoin compared to untreated site ([1]; 2 mM PSC833 via right microdialysis probe started 15 min before phenytoin 50 mg/kg i.p., left cortex vehicle site) | half-life [2] |
| --- | --- | --- | --- |
| C/C=C/C[C@@H](C)C(=O)[C@H]1C(=O)N[C@@H](C(C)C)C(=O)N(C)CC(=O)N(C)[C@@H](CC(C)C)C(=O)N[C@@H](C(C)C)C(=O)N(C)[C@@H](CC(C)C)C(=O)N[C@@H](C)C(=O)N[C@H](C)C(=O)N(C)[C@@H](CC(C)C)C(=O)N(C)[C@@H](CC(C)C)C(=O)N(C)[C@@H](C(C)C)C(=O)N1C [PSC833, [3′-desoxy-3′-oxo-MeBmt]^1-[Val]^2-Ciclosporin A] | about 150% | 70±20% | – |
| O=C1NC(=O)C(c2ccccc2)(c2ccccc2)N1 [phenytoin, 5,5-diphenyl-2,4-imidazolidinedione] | – | – | ~4 h |
